Reference: US6881719B2, “β-turn peptidomimetic cyclic compounds” (McGill University, priority 2000, dated 2005)

Assays:
physchem = conditions: water
septal neuronal cultures = assay: ChAT activity in septal neuronal cultures; type: cell-based, rat; conditions: day 8
Protocol: Cell cultures were established from the septal area of 17-day-old rat embryos. In brief, tissue was incubated in PBS containing trypsin and DNase. Tissue pieces then were mechanically dissociated. After centrifugation, the pellet was suspended in Leibovitz's L-15 medium. Cells were plated onto 96-multiwell NUNC dishes (10^5 cells/well) coated with poly-D-lysine (5 μg/ml). Pure cultures of septal neurons were treated 1 day after plating. Drugs, prepared in medium, were added directly to the cells without changing the initial medium. The incubation continued for 8 days, at which time ChAT activity was evaluated.
At day 8 of culture, the medium was aspirated, and ice-cold lysis buffer (10 mM sodium phosphate, pH 7.4/0.1% TritonX-100—Trade-mark) was added. ChAT activity assays were performed directly in the wells using Fonnum's method (Fonnum, 1975).

[1] = target: T1, TrkA•TrkA homodimers (4-3.6 cells) (Homo sapiens, UniProt P04629); assay: Detection of putative TrkA•TrkA homodimers by cross-linking and western blot; type: cell-based
T1 construct: expressed in transfected cells
Protocol: In FIG. 2, 4-3.6 cells were exposed to TrkA ligands as per Table 5 (lanes 1-4) or no ligand (lanes 5 and 6), and chemically cross-linked (lanes 1-5) or not cross-linked (lane 6). Cell lysates were western blotted with anti-TrkA 203 antisera.
Live 4-3.6 cells suspended in PBS were treated with the indicated ligand(s) for 40 min at 4° C. to allow binding. Cells were then washed in PBS, cross-linked with the membrane impermeable cross-linker disuccinimidyl suberate (DSS, Pierce; 1 mM DSS, 15 minutes at 15° C.). Unreacted DSS was quenched with 5 mM ammonium acetate. Then cells were either lysed directly in SDS sample buffer (whole cell lysate), or lysed in non-ionic detergent NP-40 and immunoprecipitated with anti-Trk or anti-p75 antibodies as described (LeSauteur et al., 1996). […] For western blot analysis, equal amounts of protein or cell equivalents for each sample were resolved in a 5-10% SDS-PAGE gradient, transferred to nitrocellulose membranes (Xymotech Biosystems, Montréal, Qc), and blotted with anti-Trk polyclonal antibody 203 that recognizes the intracellular domain of Trk. Blots were visualized using the enhanced chemiluminescence (ECL) system (New England Nuclear, Boston, Mass.).

B104 cells (p75+ TrkA-) = assay: FACScan binding of D3-biotin to B104 cells; parameters: species or system rat; conditions: D3-biotin 20 μM + D3 200 μM as competitor
[2] = tested on: TrkB-expressing HEK293 cells; assay: Cell survival control, TrkB-expressing HEK293 cells; type: cell-based
Protocol: (§1) Cell lines: 5,000 cells/well in protein-free media (PFHM-II, GIBCO, Toronto) containing 0.2% bovine serum albumin (BSA) (Crystalline fraction V, Sigma, St. Louis, Mo.) were seeded in 96 well plates (Falcon, Mississauga, Ontario). The cultures were untreated, or treated with the indicated test or control ligands. Cell viability was quantitated using the MTT assay after 56-72 hours of culture. […] The OD of untreated cells were subtracted. The higher optical density of untreated primary cultures is likely due to cellular heterogeneity and to endogenous production of limiting amounts of growth factors.

[3] = Enhancement of trophic effect of EGF; type: cell-based
TrkA-ECD [4] = target: T2, TrkA-ECD (Homo sapiens, UniProt P04629); assay: ELISA competition of mAb 5C3 binding to immobilized TrkA-ECD; conditions: for % Binding of mAb 5C3 to TrkA-ECD: mAb 5C3 2 nM
T2 construct: pure soluble TrkA extracellular domain (TrkA-ECD) produced in baculovirus; made in house
Protocol: Direct binding studies: were done as described (Saragovi et al., 1998) using 6 ng/well of recombinant baculovirus TrkA-extracellular domain protein (TrkA-ECD) or control bovine serum albumin (BSA, Fraction V, Boehringer Mannheim) immobilized onto 96-well microtest plates. Wells were blocked with binding buffer (BB: PBS with 1% BSA) for 1 hour. Then, 50 ng/well of biotinylated D3 were added as primary reagent in BB for 40 min in the absence or presence of excess non-biotinylated D3 as competitor. Wells were washed 5 times with BB, and horseradish peroxidase (HRP)-coupled avidin (Sigma) was added as secondary reagent for 30 min. Plates were washed in BB, and peroxidase activity was determined colorimetrically using 2,2-azinobis (3-ethylbenzthiazoline sulfonic acid) (ABTS, Sigma). The optical density (OD) was measured at 414 nm in a Microplate reader (Bio-Rad). Assays were repeated at least three times, n=4.
Binding Competition: studies were as described for direct binding assays to TrkA-ECD, except that as primary reagent 50 ng anti-TrkA mAb 5C3/well were added in BB, in the presence or absence of D3 or controls as competitors as described (Saragovi et al., 1998). Wells were washed 5 times with BB, and HRP-coupled goat anti-mouse was added as secondary reagent for 30 min. Plates were washed in BB, and peroxidase activity were determined. Assays were repeated at least three times, n=4.

DRG neuronal cultures = assay: Morphometric analysis of DRG dissociated neurons (neurite outgrowth); type: cell-based, rat; conditions: 8 days
Protocol: In FIG. 1 primary neuronal DRG cultures were treated as indicated for 8 days, and cell differentiation was studied morphometrically. Magnification 60×. Pictures representative of 3 independent experiments.
Fetal rat DRG primary cultures were established from Sprague Dawley day 17 rat embryos. All ganglia were dissected and dissociated first enzymatically with trypsin and then mechanically. Dissociated cells were cultured (10^5 cells/well) in 96 well plates pre-coated with collagen, and grown for a total of 8 days in Neuro Basal Medium containing N2 supplement (GIBCO, Toronto), antibiotics, and L-glutamine. These DRG cultures are ˜85% TrkA-expressing and are heavily dependent on TrkA signals for survival.
The effect of D3 on TrkA-mediated cellular differentiation was assessed using two independent assays: morphometric analysis of DRG dissociated neurons and induction of ChAT activity in septal neuronal cultures.

TrkA = TrkA (Homo sapiens, UniProt P04629); assay: Inhibition of agonistic activity of mAb 5C3; type: cell-based
wild type HEK293 cells = assay: Cell survival control, wild type HEK293 cells; type: cell-based
Protocol: as §1

TrkA-ECD [5] = target: T2, TrkA-ECD; assay: ELISA and RIA binding assays of NGF•TrkA-ECD

T2 sequence (P04629 33-423 limits assumed): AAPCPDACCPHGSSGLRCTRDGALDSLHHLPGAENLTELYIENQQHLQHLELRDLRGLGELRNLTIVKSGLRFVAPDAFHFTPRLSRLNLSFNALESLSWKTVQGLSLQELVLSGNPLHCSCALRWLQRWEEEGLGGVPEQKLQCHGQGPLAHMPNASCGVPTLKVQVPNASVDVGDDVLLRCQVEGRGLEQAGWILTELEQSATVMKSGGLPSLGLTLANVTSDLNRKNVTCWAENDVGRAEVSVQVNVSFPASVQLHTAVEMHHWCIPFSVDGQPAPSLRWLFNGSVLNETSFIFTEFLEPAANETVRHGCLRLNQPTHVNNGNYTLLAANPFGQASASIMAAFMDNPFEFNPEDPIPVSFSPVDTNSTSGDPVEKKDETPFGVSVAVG
T1 sequence (P04629 33-796): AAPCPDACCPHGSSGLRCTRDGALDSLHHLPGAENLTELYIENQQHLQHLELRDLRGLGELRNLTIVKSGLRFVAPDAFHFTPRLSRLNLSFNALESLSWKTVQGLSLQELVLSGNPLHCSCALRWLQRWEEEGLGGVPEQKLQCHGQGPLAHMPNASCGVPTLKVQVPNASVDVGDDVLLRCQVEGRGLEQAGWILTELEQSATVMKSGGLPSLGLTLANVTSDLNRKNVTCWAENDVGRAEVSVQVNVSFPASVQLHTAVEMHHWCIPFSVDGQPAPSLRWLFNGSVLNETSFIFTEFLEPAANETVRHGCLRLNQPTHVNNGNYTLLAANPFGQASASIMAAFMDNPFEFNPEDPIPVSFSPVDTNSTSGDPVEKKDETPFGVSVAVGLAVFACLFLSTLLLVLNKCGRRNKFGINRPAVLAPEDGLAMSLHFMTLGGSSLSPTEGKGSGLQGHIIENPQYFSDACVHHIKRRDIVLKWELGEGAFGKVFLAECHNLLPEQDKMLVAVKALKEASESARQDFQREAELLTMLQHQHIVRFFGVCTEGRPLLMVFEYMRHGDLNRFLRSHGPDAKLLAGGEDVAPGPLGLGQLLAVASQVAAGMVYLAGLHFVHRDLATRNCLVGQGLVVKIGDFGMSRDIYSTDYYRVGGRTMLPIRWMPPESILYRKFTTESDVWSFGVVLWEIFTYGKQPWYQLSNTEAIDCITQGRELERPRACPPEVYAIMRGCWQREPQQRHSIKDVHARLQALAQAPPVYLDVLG
TrkA, sequence (P04629 33-796): as above

NCCCC[C@@H]1NC(=O)[C@H](CCC(=O)O)NC(=O)c2cc([N+](=O)[O-])ccc2OCCC(C(=O)NCC(=O)O)NC1=O (stereo partly drawn) [D3, EKHse-G-OH]
solubility (physchem): ≥ 5000 µg/mL
ChAT Activity (septal neuronal cultures; compound 0.2 μM + 10 pM NGF): 0.60 ± 0.04 pmol Ach/min/well
Fold Increase (ChAT activity) (septal neuronal cultures; compound 0.2 μM + 10 pM NGF): 2.00
ChAT Activity (septal neuronal cultures; compound 0.2 μM alone): 0.37 ± 0.05 pmol Ach/min/well
Fold Increase (ChAT activity) (septal neuronal cultures; compound 0.2 μM alone): 1.23
ChAT Activity (septal neuronal cultures; compound 2 μM + 10 pM NGF): 0.76 ± 0.03 pmol Ach/min/well
Fold Increase (ChAT activity) (septal neuronal cultures; compound 2 μM + 10 pM NGF): 2.53
ChAT Activity (septal neuronal cultures; compound 2 μM alone): 0.44 ± 0.02 pmol Ach/min/well
Fold Increase (ChAT activity) (septal neuronal cultures; compound 2 μM alone): 1.47
ChAT Activity (septal neuronal cultures; compound 20 μM + 10 pM NGF): 0.79 ± 0.04 pmol Ach/min/well
Fold Increase (ChAT activity) (septal neuronal cultures; compound 20 μM + 10 pM NGF): 2.63
ChAT Activity (septal neuronal cultures; compound 20 μM alone): 0.48 ± 0.06 pmol Ach/min/well
Fold Increase (ChAT activity) (septal neuronal cultures; compound 20 μM alone): 1.56
intensity of the Mr 300 kDa band (TrkA dimers), standardized to 1 nM NGF (100%) ([1]; 10 pM NGF + 10 μM D3): 77±7%
intensity of the Mr 300 kDa band (TrkA dimers), standardized to 1 nM NGF (100%) ([1]; 10 μM D3 alone): 21±4%
MCF (mean channel fluorescence) (B104 cells (p75+ TrkA-)): 11 ± 2
protection from apoptosis [2]: neither D3 nor NGF protected
enhancement of the trophic effect of EGF [3]: did not enhance
Kd (TrkA-ECD [4]; calculated from the experimental IC50, read-out: Kd for D3•TrkA-ECD interactions): ~2000 nM
% Binding of mAb 5C3 to TrkA-ECD (TrkA-ECD [4]; competitor 0.05 μM): 100 ± 14%
% Binding of mAb 5C3 to TrkA-ECD (TrkA-ECD [4]; competitor 0.2 μM): 89 ± 8%
% Binding of mAb 5C3 to TrkA-ECD (TrkA-ECD [4]; competitor 1 μM): 64 ± 10%
% Binding of mAb 5C3 to TrkA-ECD (TrkA-ECD [4]; competitor 5 μM): 43 ± 12%
% Binding of mAb 5C3 to TrkA-ECD (TrkA-ECD [4]; competitor 20 μM): 38 ± 7%
% Binding of mAb 5C3 to TrkA-ECD (TrkA-ECD [4]; competitor 40 μM): 31 ± 4%
neurite outgrowth (DRG neuronal cultures; D3 alone): undergo neurite outgrowth in response to D3
potentiation of NGF effect on neurite outgrowth (DRG neuronal cultures; D3 with NGF): potentiates the effect of NGF
inhibition of optimal agonistic activity of mAb 5C3 (TrkA): inhibited by D3 in a dose-dependent manner
protection from apoptosis (wild type HEK293 cells): neither D3 nor NGF protected
blocking of NGF•TrkA-ECD interactions (TrkA-ECD [5]): did not substantially block
